In the supplement of paper PMC11781733:
Counter-ions that a name gives are not always drawn.

Tests used:
Settings in all cases: exposure time: 15 min to 3 h acute
Dugesia japonica [1] = assay: crawl-out incidence (% planarians); higher = higher incidence or increase relative to vehicle control
Dugesia japonica [2] = assay: speed in dark vs vehicle (% change vs vehicle); higher = higher incidence or increase relative to vehicle control
In short: (§1)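 Values are median percent changes in crawling speed of intact, fasted Dugesia japonica, measured in the dark or during blue light by automated tracking and normalised per worm to the plate's vehicle median. Single worms in 200 μL per well of 48-well plates were tested 15 min to 3 h after exposure, with 0.5% DMSO or water as vehicle, and worms that crawled out were excluded.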

Dugesia japonica [3] = assay: C-shape incidence (% planarians (vehicle-normalised)); higher = higher incidence or increase relative to vehicle control
In short: (§2)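 Values are the incidence of each body shape or of any abnormal shape, ×100, relative to in-plate vehicle controls, and negatives are set to 0. Fasted D. japonica planarians (5–7 days), one per 200 μL well in sealed 48-well plates, were scored blind by hand within 15 minutes–3 hours of exposure to at least 5 concentrations; worms that crawled out were excluded.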

Dugesia japonica [4] = assay: corkscrew incidence (% planarians (vehicle-normalised)); higher = higher incidence or increase relative to vehicle control
In short: as §2

Dugesia japonica [5] = assay: stickiness incidence (% planarians (vehicle-normalised)); higher = higher incidence or increase relative to vehicle control
In short: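 In the Stickiness assay, fasted Dugesia japonica planarians were each placed in one well of a sealed 48-well plate containing 200 μL of solution, with 0.5% DMSO or water as vehicle. Testing took place 15 min–3 h after exposure to half- or quarter-log concentration series. Stickiness was recorded as a binary endpoint, and its incidence was expressed relative to in-plate vehicle incidence after pooling technical triplicates and removing worms that crawled out. Negative values were set to 0 and all values were multiplied by 100.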

Dugesia japonica [6] = assay: hyperkinesis incidence (% planarians (vehicle-normalised)); higher = higher incidence or increase relative to vehicle control
In short: as §2

Dugesia japonica [7] = assay: speed first 30 s blue light vs vehicle (% change vs vehicle); higher = higher incidence or increase relative to vehicle control
In short: as §1

Dugesia japonica [8] = assay: speed second 30 s blue light vs vehicle (% change vs vehicle); higher = higher incidence or increase relative to vehicle control
In short: as §1

Dugesia japonica [9] = assay: pharynx extrusion incidence (% planarians (vehicle-normalised)); higher = higher incidence or increase relative to vehicle control
In short: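 Pharynx extrusion was scored manually and blind as a body-shape category, and its incidence was normalised to in-plate vehicle controls. Individual intact, fasted Dugesia japonica were kept in 200 μL per well of 48-well plates and tested 15 min to 3 h after exposure in water or 0.5% DMSO vehicle. Negatives were set to 0, and worms that crawled out were excluded.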

Dugesia japonica [10] = assay: loss of phototaxis incidence (% planarians (vehicle-normalised)); higher = higher incidence or increase relative to vehicle control
In short: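 The endpoint was loss of phototaxis, scored yes/no by automated object tracking in intact, fasted Dugesia japonica kept singly in wells. Plates had 48 wells holding 200 μL, and worms were tested 15 min to 3 h after exposure in 0.5% DMSO or water vehicle. The incidence rate ×100 was normalised to in-plate vehicle controls, with negatives set to 0 and escaped worms excluded.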

Dugesia japonica [11] = assay: total locomotor bursts minus vehicle (bursts difference vs vehicle); higher = higher incidence or increase relative to vehicle control
In short: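 Fasted Dugesia japonica planarians, one per well of a sealed 48-well plate in 200 μL solution, were tested 15 min–3 h after exposure to half- or quarter-log concentration series. The vehicle was 0.5% DMSO or water. Total locomotor bursts, an unstimulated behaviour, came from image-based object tracking, with technical triplicates totalling n = 24. Each planarian's value had the plate vehicle-control median subtracted, without ×100 scaling. The value is the median normalised response, and crawled-out worms were excluded.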

Dugesia japonica [12] = assay: noxious heat displacement strength vs vehicle (% change vs vehicle); higher = higher incidence or increase relative to vehicle control
In short: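 With automated object tracking, the scrunching assay gave displacement strength under noxious heat for intact, fasted Dugesia japonica, each normalised to its plate's vehicle median and summarised as the median percent change. Worms sat singly in 200 μL in 48-well plates and were tested 15 min to 3 h after exposure in 0.5% DMSO or water vehicle; those that crawled out were excluded.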

Dugesia japonica [13] = assay: contracted body shape incidence (% planarians (vehicle-normalised)); higher = higher incidence or increase relative to vehicle control
In short: as §2

Dugesia japonica [14] = assay: anxiety (time in outer well region) vs vehicle (% change vs vehicle); higher = higher incidence or increase relative to vehicle control
In short: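 Time in the outer portion of each well was tracked by software for individual planarians, excluding any that crawled out, and the median normalized response is given. Worms (D. japonica, fasted 5–7 days) sat one per well in 200 μL in sealed 48-well plates, were exposed to at least 5 concentrations with n = 24 per concentration in technical triplicates, and were screened within 15 minutes–3 hours. Normalization divided each response by, or reduced it by, the plate vehicle median and multiplied the result by 100.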

Dugesia japonica [15] = assay: any abnormal body shape incidence (% planarians (vehicle-normalised)); higher = higher incidence or increase relative to vehicle control
In short: as §2

Dugesia japonica [16] = assay: resting fraction in dark vs vehicle (difference in fraction x100 vs vehicle); higher = higher incidence or increase relative to vehicle control
In short: (§3)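 Values give the median resting fraction in the dark or under blue light, obtained by automated tracking with the plate's vehicle median subtracted from each worm and the difference multiplied by 100. Intact, fasted Dugesia japonica were placed one per well of a 48-well plate in 200 μL, eight per concentration per plate in technical triplicate. Tracking ran 15 min to 3 h after exposure in 0.5% DMSO or water vehicle, and any worm that crawled out was excluded.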

Dugesia japonica [17] = assay: loss of heat-induced scrunching incidence (% planarians (vehicle-normalised)); higher = higher incidence or increase relative to vehicle control
In short: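 The incidence of worms lacking a scrunching response to a noxious heat stimulus, normalised to vehicle controls within each plate, is the value listed. It appears ×100 with negatives set to 0. Single D. japonica planarians in 200 μL per well of 48-well plates were exposed to at least 5 concentrations (n = 24 per concentration) and tested within 15 minutes–3 hours, excluding worms that crawled out.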

Dugesia japonica [18] = assay: resting fraction in blue light vs vehicle (difference in fraction x100 vs vehicle); higher = higher incidence or increase relative to vehicle control
In short: as §3

| SMILES | crawl-out incidence (Dugesia japonica [1]) | speed in dark (Dugesia japonica [2]) | C-shape incidence (Dugesia japonica [3]) | corkscrew incidence (Dugesia japonica [4]) | stickiness incidence (Dugesia japonica [5]) | hyperkinesis incidence (Dugesia japonica [6]) | speed first 30 s blue light (Dugesia japonica [7]) | speed second 30 s blue light (Dugesia japonica [8]) | pharynx extrusion incidence (Dugesia japonica [9]) | loss of phototaxis incidence (Dugesia japonica [10]) | total locomotor bursts minus vehicle (Dugesia japonica [11]) | noxious heat displacement strength (Dugesia japonica [12]) | contracted body shape incidence (Dugesia japonica [13]) | anxiety (Dugesia japonica [14]) | any abnormal body shape incidence (Dugesia japonica [15]) | resting fraction in dark (Dugesia japonica [16]) | loss of heat-induced scrunching incidence (Dugesia japonica [17]) | resting fraction in blue light (Dugesia japonica [18]) |
| --- | --- | --- | --- | --- | --- | --- | --- | --- | --- | --- | --- | --- | --- | --- | --- | --- | --- | --- |
| O=C(O)C(=O)O [oxalic acid] (1000 µM) | 0 | -53.2 | 41.7 | 0 | ≤ 0 | 0 | -88.1 | -90.4 | 0 | 54.2 | 4 | -57 | 50 | -19.2 | 62.5 | 60.5 | 83.3 | 63.9 |
| CN(C)CCCC1(c2ccc(F)cc2)OCc2cc(C#N)ccc21 (configuration not stated) [citalopram hydrobromide] (1000 µM) | 0 | -48.7 | 0 | 0 | ≤ 0 | 83.3 | -57.3 | -71.1 | 0 | 16.7 | 40.2 | -42.7 | 0 | 11.2 | 83.3 | 17.8 | 8.33 | 16.8 |
| O=C(CCCN1CC=C(n2c(=O)[nH]c3ccccc32)CC1)c1ccc(F)cc1 [droperidol] (3.16 µM) | 0 | -77.5 | 12.5 | 8.33 | 8.33 | 37.5 | -90.1 | -89.6 | 0 | 45.8 | 18.8 | -42.7 | 16.7 | -4.16 | 50 | 62.6 | 66.7 | 66.1 |
| CN1CCN(CCCN2c3ccccc3Sc3ccc(Cl)cc32)CC1 [prochloroperazine] (100 µM) | 29.2 | -72.3 | 35 | 5 | ≤ 0 | 0 | -91.1 | -92.9 | 0 | 76.5 | 0.25 | -41.6 | 75 | -100 | 70 | 77 | 75 | 82.2 |
| O=C(CCCN1CC=C(n2c(=O)[nH]c3ccccc32)CC1)c1ccc(F)cc1 [droperidol] (10 µM) | 0 | -80 | 20.8 | 12.5 | ≤ 0 | 25 | -93.8 | -91.1 | 0 | 54.2 | 19.5 | -23.3 | 29.2 | -31.9 | 70.8 | 68.7 | 70.8 | 67.9 |
| CNCC[C@H](Oc1cccc2ccccc12)c1cccs1 [s-duloxetine] (100 µM) | 4.17 | -50.6 | 13 | 0 | ≤ 0 | 0 | -84 | -87.5 | 65.2 | 56.5 | -4.5 | -66.8 | 34.8 | -57.1 | 82.6 | 55.5 | 73.9 | 72.3 |
| O=C1CCc2ccc(OCCCCN3CCN(c4cccc(Cl)c4Cl)CC3)cc2N1 [aripiprazole] (10 µM) | 0 | -46.8 | 12.5 | 4.17 | ≤ 0 | 4.17 | -70.8 | -63.1 | 0 | 25 | 31 | -17.3 | 0 | -16.3 | 20.8 | 34.5 | 16.7 | 19.8 |
| CN1CCN(CCCN2c3ccccc3Sc3ccc(Cl)cc32)CC1 [prochloroperazine] (10 µM) | 25 | -74.9 | 12.5 | 0 | 4.17 | 25 | -81.4 | -85.8 | 0 | 50 | 12.5 | -55.5 | 4.17 | 21.9 | 37.5 | 38.3 | 66.7 | 52.9 |
| CNCCC(Oc1ccc(C(F)(F)F)cc1)c1ccccc1 (configuration not stated) [fluoxetine hydrochloride] (10 µM) | 4.17 | -41.5 | 0 | 0 | ≤ 0 | 0 | -37.3 | -39.7 | 0 | ≤ 0 | 1 | -40 | 0 | 10.3 | 0 | -0.39 | 8.7 | -1.17 |
